Data from US6613718B2, “Aryl ether derivatives and processes for their preparation and herbicidal and desiccant compositions containing them” (Ishihara Sangyo Kaisha, Ltd., priority 2001, dated 2003).

How the values were obtained:
[1] = test system: upland rice (Oryza sp., var.Tebonnet, RICE); experiment: Post-emerge greenhouse screening, crop safety (phytotoxicity rating); assay type: in vivo; settings: 14 days after application
Method in brief: (§1)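 Greenhouse screen. Sowing preceded application by one day (pre-emergence) or 8-21 days (post-emergence). Doses spanned 15 to 1000 g ai/ha in acetone. Score at day 14: 0 no injury, 100 total kill.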

[2] = test system: soybean (Glycine max L., var. Pella 86, SOY); experiment: as above; assay type: in vivo; settings: 14 days after application
Method in brief: as §1

[3] = test system: johnsongrass (Sorghum halepense, SORHA); experiment: Post-emerge greenhouse herbicide activity screening, phytotoxicity rating; assay type: in vivo; settings: 14 days after application
Method in brief: as §1

[4] = test system: green foxtail (Setaria viridis, SETVI); experiment: as above; assay type: in vivo
Method in brief: as §1

[5] = test system: redroot pigweed (Amaranthus retroflexus, AMARE); experiment: as above; assay type: in vivo
Method in brief: as §1

[6] = test system: lambsquarters (Chenopodium album, CHEAL); experiment: as above; assay type: in vivo
Method in brief: as §1

[7] = test system: large crabgrass (Digitaria sanguinalis, DIGSA); experiment: as above; assay type: in vivo; settings: 14 days after application
Method in brief: as §1

[8] = test system: ivyleaf morningglory (Ipomoea hederacea, IPOHE); experiment: as above; assay type: in vivo; settings: 14 days after application
Method in brief: as §1

[9] = test system: barnyardgrass (Echinochloa crus-galli, ECHCG); experiment: as above; assay type: in vivo; settings: 14 days after application
Method in brief: as §1

[10] = test system: sicklepod (Cassia obtusifolia, CASOB); experiment: as above; assay type: in vivo
Method in brief: as §1

[11] = test system: common ragweed (Ambrosia artemisiifolia L., AMBEL); experiment: as above; assay type: in vivo
Method in brief: as §1

[12] = test system: velvetleaf (Abutilon theophrasti, ABUTH); experiment: as above; assay type: in vivo; settings: 14 days after application
Method in brief: as §1

[13] = test system: field corn (Zea mays L., var. Dekalb 535, CORN); experiment: Pre-emerge greenhouse screening, crop safety (phytotoxicity rating); assay type: in vivo; settings: 14 days after application
Method in brief: as §1

[14] = test system: upland rice (Oryza sp., var.Tebonnet, RICE); experiment: as above; assay type: in vivo; settings: 14 days after application
Method in brief: as §1

[15] = test system: soybean (Glycine max L., var. Pella 86, SOY); experiment: as above; assay type: in vivo; settings: 14 days after application
Method in brief: as §1

[16] = Post-emerge greenhouse screening, crop safety / corn selectivity (phytotoxicity rating); assay type: in vivo, Zea mays L.; settings: Zea mays (field corn), in vivo
Method in brief: as §1

[17] = test system: field corn (Zea mays L., var. Dekalb 535, CORN); experiment: as above; assay type: in vivo; settings: 14 days after application
Method in brief: as §1

[18] = test system: johnsongrass (Sorghum halepense, SORHA); experiment: Pre-emerge greenhouse herbicide activity screening, phytotoxicity rating; assay type: in vivo; settings: 14 days after application
Method in brief: as §1

[19] = test system: green foxtail (Setaria viridis, SETVI); experiment: as above; assay type: in vivo; settings: 14 days after application
Method in brief: as §1

[20] = test system: redroot pigweed (Amaranthus retroflexus, AMARE); experiment: as above; assay type: in vivo; settings: 14 days after application
Method in brief: as §1

[21] = test system: lambsquarters (Chenopodium album, CHEAL); experiment: as above; assay type: in vivo; settings: 14 days after application
Method in brief: as §1

[22] = test system: large crabgrass (Digitaria sanguinalis, DIGSA); experiment: as above; assay type: in vivo; settings: 14 days after application
Method in brief: as §1

[23] = test system: ivyleaf morningglory (Ipomoea hederacea, IPOHE); experiment: as above; assay type: in vivo; settings: 14 days after application
Method in brief: as §1

[24] = test system: barnyardgrass (Echinochloa crus-galli, ECHCG); experiment: as above; assay type: in vivo; settings: 14 days after application
Method in brief: as §1

[25] = test system: sicklepod (Cassia obtusifolia, CASOB); experiment: as above; assay type: in vivo; settings: 14 days after application
Method in brief: as §1

[26] = test system: common ragweed (Ambrosia artemisiifolia L., AMBEL); experiment: as above; assay type: in vivo; settings: 14 days after application
Method in brief: as §1

[27] = test system: velvetleaf (Abutilon theophrasti, ABUTH); experiment: as above; assay type: in vivo; settings: 14 days after application
Method in brief: as §1

[28] = 125 g ai/ha, 14 days after application
[29] = 250 g ai/ha, 14 days after application

Cn1c(C(F)(F)F)cc(=O)n(-c2cc(Oc3ncccn3)c(Cl)cc2F)c1=S [Compound 1-1, 3-[4-Chloro-2-fluoro-5-(2-pyrimidinyloxy)phenyl]-2,3-dihydro-1-methyl-2-thioxo-6-(trifluoromethyl)-4(1H)-pyrimidinone]
RICE crop damage, phytotoxicity rating (0-100 scale) ([1]; 125 g ai/ha): 100 | RICE crop damage, phytotoxicity rating (0-100 scale) ([1]; 250 g ai/ha): 100 | SOY crop damage, phytotoxicity rating (0-100 scale) ([2]; 125 g ai/ha): 100 | SOY crop damage, phytotoxicity rating (0-100 scale) ([2]; 250 g ai/ha): 100 | SORHA phytotoxicity rating (0-100 scale) ([3]; 125 g ai/ha): 95 | SORHA phytotoxicity rating (0-100 scale) ([3]; 250 g ai/ha): 98 | SETVI phytotoxicity rating (0-100 scale) ([4]; 31.3 g ai/ha): 85 | SETVI phytotoxicity rating (0-100 scale) ([4]; 62.5 g ai/ha): 99 | SETVI phytotoxicity rating (0-100 scale) [4, 28]: 100 | SETVI phytotoxicity rating (0-100 scale) [4, 29]: 100 | AMARE phytotoxicity rating (0-100 scale) ([5]; 31.3 g ai/ha): 100 | AMARE phytotoxicity rating (0-100 scale) ([5]; 62.5 g ai/ha): 100 | AMARE phytotoxicity rating (0-100 scale) [5, 28]: 100 | AMARE phytotoxicity rating (0-100 scale) [5, 29]: 100 | CHEAL phytotoxicity rating (0-100 scale) ([6]; 31.3 g ai/ha): 100 | CHEAL phytotoxicity rating (0-100 scale) ([6]; 62.5 g ai/ha): 100 | CHEAL phytotoxicity rating (0-100 scale) [6, 28]: 100 | CHEAL phytotoxicity rating (0-100 scale) [6, 29]: 100 | DIGSA phytotoxicity rating (0-100 scale) ([7]; 125 g ai/ha): 95 | DIGSA phytotoxicity rating (0-100 scale) ([7]; 250 g ai/ha): 90 | IPOHE phytotoxicity rating (0-100 scale) ([8]; 125 g ai/ha): 100 | IPOHE phytotoxicity rating (0-100 scale) ([8]; 250 g ai/ha): 100 | ECHCG phytotoxicity rating (0-100 scale) ([9]; 125 g ai/ha): 100 | ECHCG phytotoxicity rating (0-100 scale) ([9]; 250 g ai/ha): 100 | CASOB phytotoxicity rating (0-100 scale) ([10]; 31.3 g ai/ha): 95 | CASOB phytotoxicity rating (0-100 scale) ([10]; 62.5 g ai/ha): 99 | CASOB phytotoxicity rating (0-100 scale) [10, 28]: 99 | CASOB phytotoxicity rating (0-100 scale) [10, 29]: 99 | AMBEL phytotoxicity rating (0-100 scale) ([11]; 31.3 g ai/ha): 75 | AMBEL phytotoxicity rating (0-100 scale) ([11]; 62.5 g ai/ha): 98 | AMBEL phytotoxicity rating (0-100 scale) [11, 28]: 99 | AMBEL phytotoxicity rating (0-100 scale) [11, 29]: 100 | ABUTH phytotoxicity rating (0-100 scale) ([12]; 125 g ai/ha): 100 | ABUTH phytotoxicity rating (0-100 scale) ([12]; 250 g ai/ha): 100 | CORN crop damage, phytotoxicity rating (0-100 scale) ([13]; 125 g ai/ha): 100 | CORN crop damage, phytotoxicity rating (0-100 scale) ([13]; 250 g ai/ha): 100 | RICE crop damage, phytotoxicity rating (0-100 scale) ([14]; 125 g ai/ha): 100 | RICE crop damage, phytotoxicity rating (0-100 scale) ([14]; 250 g ai/ha): 100 | SOY crop damage, phytotoxicity rating (0-100 scale) ([15]; 125 g ai/ha): 100 | SOY crop damage, phytotoxicity rating (0-100 scale) ([15]; 250 g ai/ha): 80 | corn phytotoxicity rating (0-100 scale) at 14 days ([16]; 31.3 g ai/ha): 8 | corn phytotoxicity rating (0-100 scale) at 14 days ([16]; 62.5 g ai/ha): 8 | CORN crop damage, phytotoxicity rating (0-100 scale) ([17]; 125 g ai/ha): 10 | CORN crop damage, phytotoxicity rating (0-100 scale) ([17]; 250 g ai/ha): 15 | SORHA phytotoxicity rating (0-100 scale) ([18]; 125 g ai/ha): 100 | SORHA phytotoxicity rating (0-100 scale) ([18]; 250 g ai/ha): 100 | SETVI phytotoxicity rating (0-100 scale) ([19]; 125 g ai/ha): 100 | SETVI phytotoxicity rating (0-100 scale) ([19]; 250 g ai/ha): 100 | AMARE phytotoxicity rating (0-100 scale) ([20]; 125 g ai/ha): 100 | AMARE phytotoxicity rating (0-100 scale) ([20]; 250 g ai/ha): 100 | CHEAL phytotoxicity rating (0-100 scale) ([21]; 125 g ai/ha): 100 | CHEAL phytotoxicity rating (0-100 scale) ([21]; 250 g ai/ha): 100 | DIGSA phytotoxicity rating (0-100 scale) ([22]; 125 g ai/ha): 100 | DIGSA phytotoxicity rating (0-100 scale) ([22]; 250 g ai/ha): 100 | IPOHE phytotoxicity rating (0-100 scale) ([23]; 125 g ai/ha): 100 | IPOHE phytotoxicity rating (0-100 scale) ([23]; 250 g ai/ha): 100 | ECHCG phytotoxicity rating (0-100 scale) ([24]; 125 g ai/ha): 100 | ECHCG phytotoxicity rating (0-100 scale) ([24]; 250 g ai/ha): 100 | CASOB phytotoxicity rating (0-100 scale) ([25]; 125 g ai/ha): 100 | CASOB phytotoxicity rating (0-100 scale) ([25]; 250 g ai/ha): 100 | AMBEL phytotoxicity rating (0-100 scale) ([26]; 125 g ai/ha): 100 | AMBEL phytotoxicity rating (0-100 scale) ([26]; 250 g ai/ha): 100 | ABUTH phytotoxicity rating (0-100 scale) ([27]; 125 g ai/ha): 100 | ABUTH phytotoxicity rating (0-100 scale) ([27]; 250 g ai/ha): 100
